Measured values taken from PubChem BioAssay (NCI).
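Assay format: 96-well plates, 48-hour exposure. The concentration for 50% growth inhibition is given as GI50. TGI denotes the concentration required for complete inhibition of growth.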

Tests used:
Experiment in all cases: DTP human tumour cell line panel, 48 h; in the data active = GI50 below about 0.43 µM; inactive = the rest
[1] = system: 786-0 renal
[2] = system: A549 NSCLC
[3] = system: ACHN renal
[4] = system: BT-549 breast
[5] = system: CAKI-1 renal
[6] = system: CCRF-CEM leukemia
[7] = system: DU-145 prostate
[8] = system: EKVX NSCLC
[9] = system: HCT-116 colon
[10] = system: HCT-15 colon
[11] = system: HL-60(TB) leukemia
[12] = system: HOP-62 NSCLC
[13] = system: HOP-92 NSCLC
[14] = system: HT29 colon
[15] = system: IGROV1 ovarian
[16] = system: K-562 leukemia
[17] = system: KM12 colon
[18] = system: LOX IMVI melanoma
[19] = system: M14 melanoma
[20] = system: MALME-3M melanoma
[21] = system: MCF7 breast
[22] = system: MDA-MB-231 breast
[23] = system: MDA-MB-435
[24] = system: MOLT-4 leukemia
[25] = system: NCI-H23 lung
[26] = system: NCI-H460 lung
[27] = system: NCI-H522 lung
[28] = system: NCI/ADR-RES ovarian
[29] = system: OVCAR-3 ovarian
[30] = system: OVCAR-4 ovarian
[31] = system: OVCAR-8 ovarian
[32] = system: PC-3 prostate
[33] = system: RPMI-8226 leukemia
[34] = system: RXF 393 renal
[35] = system: SF-268 CNS
[36] = system: SF-295 CNS
[37] = system: SK-MEL-2 melanoma
[38] = system: SK-MEL-28 melanoma
[39] = system: SK-MEL-5 melanoma
[40] = system: SK-OV-3 ovarian
[41] = system: SN12C renal
[42] = system: SNB-19 CNS
[43] = system: SNB-75 CNS
[44] = system: SR leukemia
[45] = system: SW-620 colon
[46] = system: T-47D breast
[47] = system: TK-10 renal
[48] = system: U251 CNS
[49] = system: UACC-257 melanoma
[50] = system: UACC-62 melanoma
[51] = system: UO-31 renal
[52] = system: A498 renal
[53] = system: COLO 205 colon
[54] = system: HCC-2998 colon
[55] = system: HS 578T breast
[56] = system: NCI-H226 lung
[57] = system: OVCAR-5 ovarian
[58] = system: SF-539 CNS

N#CC(C#N)=CN1CCN(C(=O)c2ccccc2)C1=S
43.6 µM: TGI [3]
47.3 µM: TGI [51]
70.7 µM: TGI [34]
50.1 µM: TGI [39]
60.1 µM: TGI [25]
68.4 µM: TGI [37]
11.4 µM: TGI [8]
81.9 µM: TGI [49]
43.7 µM: TGI [27]
79.9 µM: TGI [44]
85.9 µM: TGI [7]
inactive: GI50 [1] 38.9 µM | GI50 [2] 37.1 µM | GI50 [3] 18.8 µM | GI50 [4] 22.8 µM | GI50 [5] 28.7 µM | GI50 [6] > 100 µM | GI50 [7] 24.4 µM | GI50 [8] 3.48 µM | GI50 [9] 34 µM | GI50 [10] 36.4 µM | GI50 [11] 33.5 µM | GI50 [12] > 100 µM | GI50 [13] 56.8 µM | GI50 [14] 42 µM | GI50 [15] 28.2 µM | GI50 [16] 79.5 µM | GI50 [17] 32.3 µM | GI50 [18] > 100 µM | GI50 [19] 37.3 µM | GI50 [20] 10.2 µM | GI50 [21] 16.7 µM | GI50 [22] 36.1 µM | GI50 [23] 38.8 µM | GI50 [24] 39.2 µM | GI50 [25] 26.1 µM | GI50 [26] 20 µM | GI50 [27] 15.9 µM | GI50 [28] > 100 µM | GI50 [29] 36.4 µM | GI50 [30] 59.3 µM | GI50 [31] 77 µM | GI50 [32] 60 µM | GI50 [33] 35.3 µM | GI50 [34] 22.7 µM | GI50 [35] 21.3 µM | GI50 [36] 46.2 µM | GI50 [37] 18.4 µM | GI50 [38] 45.4 µM | GI50 [39] 23.3 µM | GI50 [40] 66.7 µM | GI50 [41] 24.6 µM | GI50 [42] > 100 µM | GI50 [43] > 100 µM | GI50 [44] 18.8 µM | GI50 [45] 33.7 µM | GI50 [46] 89.2 µM | GI50 [47] 23.3 µM | GI50 [48] 38.2 µM | GI50 [49] 25.3 µM | GI50 [50] 50.4 µM | GI50 [51] 20.4 µM
53 µM: TGI [4]
86.7 µM: TGI [17]
79.4 µM: TGI [11]
89.4 µM: TGI [5]
55.9 µM: TGI [21]
49 µM: TGI [35]
> 100 µM: TGI [1] | TGI [2] | TGI [6] | TGI [9] | TGI [10] | TGI [12] | TGI [13] | TGI [14] | TGI [15] | TGI [16] | TGI [18] | TGI [19] | TGI [22] | TGI [23] | TGI [24] | TGI [28] | TGI [29] | TGI [30] | TGI [31] | TGI [32] | TGI [33] | TGI [36] | TGI [38] | TGI [40] | TGI [42] | TGI [43] | TGI [45] | TGI [46] | TGI [48] | TGI [50]
75.1 µM: TGI [47]
64.1 µM: TGI [20]
66.5 µM: TGI [26]
65.8 µM: TGI [41]

c1cncc(CNc2ccccc2-c2nnc(Nc3ccc4c(c3)OCCO4)o2)c1
20 µM: TGI [13]
15.2 µM: TGI [14]
> 100 µM: TGI [1] | TGI [2] | TGI [3] | TGI [5] | TGI [8] | TGI [9] | TGI [10] | TGI [12] | TGI [55] | TGI [15] | TGI [16] | TGI [18] | TGI [19] | TGI [20] | TGI [21] | TGI [22] | TGI [25] | TGI [28] | TGI [57] | TGI [31] | TGI [32] | TGI [35] | TGI [36] | TGI [58] | TGI [37] | TGI [38] | TGI [41] | TGI [42] | TGI [43] | TGI [45] | TGI [47] | TGI [48] | TGI [49] | TGI [50] | TGI [51]
0.817 µM: TGI [53]
1.8 µM: TGI [52]
15.5 µM: TGI [24]
7.9 µM: TGI [27]
17.7 µM: TGI [33]
51.4 µM: TGI [6]
> 36 µM: TGI [44]
active: GI50 [1] 0.366 µM | GI50 [52] 0.138 µM | GI50 [2] 0.294 µM | GI50 [5] 0.215 µM | GI50 [6] 0.126 µM | GI50 [53] 0.146 µM | GI50 [7] 0.244 µM | GI50 [54] 0.255 µM | GI50 [9] 0.071 µM | GI50 [10] 0.107 µM | GI50 [11] 0.103 µM | GI50 [12] 0.181 µM | GI50 [13] 0.222 µM | GI50 [55] 0.232 µM | GI50 [14] 0.0504 µM | GI50 [16] 0.0432 µM | GI50 [17] 0.067 µM | GI50 [18] 0.183 µM | GI50 [19] 0.0704 µM | GI50 [21] 0.291 µM | GI50 [56] 0.153 µM | GI50 [25] 0.226 µM | GI50 [26] 0.148 µM | GI50 [27] 0.0369 µM | GI50 [28] 0.0557 µM | GI50 [29] 0.0452 µM | GI50 [32] 0.128 µM | GI50 [33] 0.28 µM | GI50 [34] 0.0343 µM | GI50 [36] 0.0936 µM | GI50 [58] 0.115 µM | GI50 [37] 0.217 µM | GI50 [38] 0.145 µM | GI50 [39] 0.0721 µM | GI50 [40] 0.0745 µM | GI50 [42] 0.345 µM | GI50 [43] 0.0527 µM | GI50 [44] 0.0424 µM | GI50 [45] 0.0576 µM | GI50 [48] 0.157 µM | GI50 [50] 0.0522 µM
53 µM: TGI [4]
2.03 µM: TGI [39]
3.34 µM: TGI [11]
60.2 µM: TGI [46]
1.86 µM: TGI [17]
inactive: GI50 [3] 1.08 µM | GI50 [4] 0.861 µM | GI50 [8] 0.609 µM | GI50 [15] 0.5 µM | GI50 [20] 19.2 µM | GI50 [22] 0.644 µM | GI50 [24] 0.435 µM | GI50 [30] 0.549 µM | GI50 [57] 0.658 µM | GI50 [31] 0.435 µM | GI50 [35] 0.646 µM | GI50 [41] 0.482 µM | GI50 [46] 3.57 µM | GI50 [47] 17 µM | GI50 [49] 11.6 µM | GI50 [51] 4.69 µM
0.228 µM: TGI [29]
0.81 µM: TGI [56]
0.251 µM: TGI [34]
1.79 µM: TGI [40]
> 32.5 µM: TGI [26]
42.5 µM: TGI [30]
1.54 µM: TGI [7]
